Results reported in US10568879B2 (GALAPAGOS NV, priority 2015, dated 2020).

How the values were obtained:
[1] = test system: human neutrophils; test: Human neutrophil migration assay; type: cell-based; settings: for IC50: Homo sapiens, Neutrophil, embelin at EC80 as chemotactic agent, 1 h at 37° C., read-out: Human neutrophil migration IC50
Summary of the method: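 Neutrophils freshly isolated from human buffy coats by dextran sedimentation and hypotonic lysis were preincubated with compound for 30 min at room temperature. Chemotaxis then ran in a Transwell system for 1 h at 37° C, 5% CO2. Migrated cells in the lower well were quantified by ATPlite luminescence.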

[2] = biological target: T1, GPR84 (Homo sapiens, UniProt Q9NQS5); settings: literature; cited from earlier work
T1 construct: expressed in transfected cells

[3] = biological target: T1, GPR84; test: GPR84 [35S]GTPγS binding assay; type: biochemical; settings: 3,3′-diindolylmethane at EC80; membranes from stable cell line over expressing GPR84
Summary of the method: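 Antagonist-mode [35S]GTPγS binding on membranes from a GPR84-overexpressing stable line (GDP-preincubated), stimulated with 3,3′-diindolylmethane at EC80. Buffer 20 mM Tris pH 7.5, 5 mM MgCl2, 250 mM NaCl, saponin; 0.1 nM [35S]GTPγS, 90 min at room temperature, SPA bead read-out.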

[4] = Chemical stability in aqueous solutions with different pH; type: physicochemical; settings: 2 μM; for % rem. (2 h) pH 1.2 / % rem. (24 h) pH 1.2: pH 1.2 hydrochloric acid buffer; for % rem. (2 h) pH 1.2 / % rem. (2 h) pH 5.0 / % rem. (2 h) pH 7.4 / % rem. (2 h) pH 9.0: 2 h incubation at 37° C.; for % rem. (24 h) pH 1.2 / % rem. (24 h) pH 5.0 / % rem. (24 h) pH 7.4 / % rem. (24 h) pH 9.0: 24 h incubation at 37° C.; for % rem. (2 h) pH 5.0 / % rem. (24 h) pH 5.0: pH 5.0 acetate buffer; for % rem. (2 h) pH 7.4 / % rem. (24 h) pH 7.4: pH 7.4 phosphate buffer; for % rem. (2 h) pH 9.0 / % rem. (24 h) pH 9.0: pH 9.0 Tris buffer
Experimental: This in vitro model is aimed at assessing the stability of a test compound in aqueous solutions with different pH. The decrease in parent compound is assessed by measuring the percentage parent remaining after 2 and 24 h incubation at 37° C.
A 2 mM DMSO stock is made for each test compound starting from dry matter. Then a 80 μM working solution of compound in DMSO is made by diluting the 2 mM DMSO.
The 80 μM working solution is diluted to a final concentration of 2 μM-2.5% DMSO in buffer with the desired pH (pH 1.2: hydrochloric acid buffer, pH 5.0: acetate buffer, pH 7.4: phosphate buffer, pH 9.0: Tris buffer) in 96-well plates with glass inserts (Cat no. 548-0201/548-0202, VWR-Thermo Scientific). Two replicates are run for each buffer solution and each time point.
One set of vials is incubated for 24 h at 200 rpm and another for 2 h at 200 rpm. To stop the reaction after the respective incubation times, 4 volumes of acetonitrile containing the internal standard (stop solution) are added to the reaction solution and the vials are vortexed briefly.
For the 0 h incubation, the stop solution with internal standard is first added to the buffer solution in glass vials and then the working solution of test compound (final concentration: 2 μM-2.5% DMSO) is added.
Propranolol is used as internal standard, but if the mass difference is too low with the test compound(s), another product is selected as internal standard. The concentration of the internal standard is chosen to obtain a peak area half of the average peak area of the test compounds and control at time point 0.
Analysis is performed on an LCMS-MS system (API2000 or API4000). The average of the peak areas of the two replicates from the parent compound at time 0 divided by the peak area of the internal standard is considered to be 100% remaining. The percentage remaining after 2 and 24 h of incubation is calculated for all other peaks and the percentage remaining after 2 and 24 h is reported.

[5] = test system: RAW264.7 murine macrophage-like cells; settings: RAW264.7 cells stimulated with LPS; cited from earlier work

T1 sequence (Q9NQS5 whole entry): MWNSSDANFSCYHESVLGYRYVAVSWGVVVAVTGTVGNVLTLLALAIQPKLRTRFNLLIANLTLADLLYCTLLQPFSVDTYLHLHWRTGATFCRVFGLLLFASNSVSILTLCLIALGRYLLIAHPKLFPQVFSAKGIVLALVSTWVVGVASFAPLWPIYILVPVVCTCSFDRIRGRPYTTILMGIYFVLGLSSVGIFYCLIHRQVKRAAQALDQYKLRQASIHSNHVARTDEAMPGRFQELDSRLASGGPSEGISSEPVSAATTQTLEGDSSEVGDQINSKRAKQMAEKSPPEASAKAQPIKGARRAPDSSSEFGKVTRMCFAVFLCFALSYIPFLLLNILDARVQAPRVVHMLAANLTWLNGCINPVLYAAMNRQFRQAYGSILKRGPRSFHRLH

c1ccc2c(Cc3c[nH]c4ccccc34)c[nH]c2c1 [3,3′-diindolylmethane, reference compound]
neutrophil chemotaxis induced by GPR84 agonists [1]: induce neutrophil chemotaxis
GPR84 agonist activity [2]: some GPR84 agonist activity

CCCCCCCCNc1cc(=O)[nH]c(=O)[nH]1 [6-n-octylaminouracil]
GPR84 agonist activity [2]: some GPR84 agonist activity

COc1ccc2c(c1OC)CCn1c(OC[C@@H]3COCCO3)cc(=O)c(C)c1-2 [Compound 12, 4-[[(2S)-1,4-dioxan-2-yl]methoxy]-8,9-dimethoxy-1-methyl-6,7-dihydrobenzo[a]quinolizin-2-one]
IC50 [1]: 100 to 500 nM
IC50 [3]: 100 to 500 nM
% rem. (2 h) pH 1.2 [4]: *** (>80%)
% rem. (24 h) pH 1.2 [4]: *** (>80%)
% rem. (2 h) pH 5.0 [4]: *** (>80%)
% rem. (24 h) pH 5.0 [4]: *** (>80%)
% rem. (2 h) pH 7.4 [4]: *** (>80%)
% rem. (24 h) pH 7.4 [4]: *** (>80%)
% rem. (2 h) pH 9.0 [4]: *** (>80%)
% rem. (24 h) pH 9.0 [4]: *** (>80%)

Cc1c2n(c(OC[C@@H]3COCCO3)cc1=O)CCc1cc(OCC(F)(F)F)ccc1-2 [Compound 18, 4-[[(2S)-1,4-dioxan-2-yl]methoxy]-1-methyl-9-(2,2,2-trifluoroethoxy)-6,7-dihydrobenzo[a]quinolizin-2-one]
IC50 [1]: 0.01 to 100 nM
IC50 [3]: 0.01 to 100 nM
% rem. (2 h) pH 1.2 [4]: *** (>80%)
% rem. (24 h) pH 1.2 [4]: *** (>80%)
% rem. (2 h) pH 5.0 [4]: *** (>80%)
% rem. (24 h) pH 5.0 [4]: *** (>80%)
% rem. (2 h) pH 7.4 [4]: *** (>80%)
% rem. (24 h) pH 7.4 [4]: *** (>80%)
% rem. (2 h) pH 9.0 [4]: *** (>80%)
% rem. (24 h) pH 9.0 [4]: *** (>80%)

CCCCCCCCCC(=O)O [capric acid]
secretion of interleukin-12 p40 subunit (IL-12 p40) [5]: dose dependently increased

CCCCCCCCCCCC(=O)O [lauric acid]
secretion of interleukin-12 p40 subunit (IL-12 p40) [5]: dose dependently increased

CCCCCCCCCCC(=O)O [undecanoic acid]
secretion of interleukin-12 p40 subunit (IL-12 p40) [5]: dose dependently increased
